Data reported in US20260184689A1, “PIPERIDINE-SUBSTITUTED BENZOIC ACID COMPOUND, AND PHARMACEUTICAL COMPOSITION AND USE THEREOF” (SHANGHAI YISHENG BIOPHARMACEUTICAL COMPANY LIMITED, priority 2022, published 2026).

Experiments:
PNH-like erythrocytes = assay: Alternative pathway inhibition assay of PNH-like erythrocyte; assay type: cell-based; conditions: 1 h, AET/anti-CD55 sensitized human erythrocytes, acidified normal human serum pH 6.4, 37° C. 60 min
Text: Principle: PNH, as an indication for complement inhibitors, was typically tested using the Ham test, which states that acidified serum was capable of activating the alternative pathway, leading to hemolysis of PNH erythrocytes, while normal erythrocytes remained unaffected. It was reported in the literature that AET could disrupt the complement regulatory proteins on the surface of normal human erythrocytes, resulting in PNH-like erythrocytes.
Reagents and instrument: PBS buffer, normal human serum (NHS), Alsever's solution, microplate reader, MgCl2, EGTA, EDTA, HCl, normal human erythrocytes, AET; anti-CD-55 antibody (BRIC216; Sigma)
PBS buffer: Potassium dihydrogen phosphate (KH2PO4): 0.24 g/L, disodium hydrogen phosphate (Na2HPO4): 1.44 g/L, sodium chloride (NaCl): 8 g/L, potassium chloride (KCl): 0.2 g/L, pH 7.4
PBSE buffer: PBS, 10 mM EDTA; pH 7.4
PBSMg buffer: PBS, 1 mM Mg++; pH 6.4
10× Mg-EGTA stock solution: 25 mM MgCl2, 80 mM EGTA; pH 6.4
10× EDTA stock solution: 100 mM EDTA; pH 6.4
Method: The inhibition of alternative pathway-mediated erythrocyte lysis was evaluated using an in vitro model of PNH. Normal human erythrocytes were sensitized with 2-aminoethylisothiouronium bromide (AET) to inactivate complement regulatory proteins on the cell surface and induce a PNH-like phenotype.
2 mL of normal human erythrocytes were mixed with 2 mL of Alsever's solution, washed three times with PBS, and centrifuged at 2500×g, with the upper 10% of the erythrocytes being removed each time. The washed 1 mL erythrocytes were sensitized by incubation with 4 mL of 8% w/v AET (pH 8.0) at 37° C. for 10 min, followed by three additional washes with PBS. Subsequently, the concentration of erythrocytes in PBS (erythrocyte stock solution) was adjusted with PBS such that an absorbance of 1.5-2.0 at 412 nm (indicating hemoglobin release) was achieved upon dilution of 10 μL erythrocyte stock solution with 190 μL water.
1.5 mL of the erythrocyte stock solution was mixed with anti-CD55 antibody (BRIC216; Sigma/final concentration of 6.7 μg/mL) and incubated on ice for 30 min. After being washed once with PBS, the treated erythrocytes were resuspended in PBS-Mg to the initial volume of 1.5 mL. The following AP-mediated lysis assay was performed on this erythrocyte preparation with induced PNH phenotype.
The normal human serum was acidified with 0.2 M HCl to pH 6.4, and supplemented with MgCl2 and EGTA to final concentrations of 2.5 and 8 mM, respectively. 80 μL of this serum mixture was mixed with 10 μL of PBS-Mg (negative blank) or 10 μL of samples at various concentrations. Normal human serum was acidified with 0.2 M HCl to pH 6.4, supplemented with EDTA to a final concentration of 10 mM, and 80 μL of this serum mixture was mixed with 10 μL of PBS-Mg (negative blank) as a blank positive control. The sample was incubated with serum on ice for 5 min, and then 10 μL of sensitized erythrocytes were added. The final serum concentration in the reaction mixture was approximately 64% v/v, incubated at 37° C. for 60 min, and the reaction was quenched by adding 50 μL of ice-cold PBS containing 10 mM EDTA. The remaining unlysed cells were centrifuged at 2500×g for 10 min, and 100 μL of the supernatant was transferred to a 96-well plate to measure its absorbance at 412 nm. The amount of hemoglobin released during erythrocyte lysis was thereby quantified. […] represented the relative lysis of PNH-like erythrocytes (expressed in %; set to 0% for the PC sample and 100% for the NC sample). The absorbance was measured using a microplate reader (Molecular Devices SpectraMax 3X). The IC50 value was calculated by applying nonlinear regression with GraphPad Prism 9.0 software from the percentage of hemolysis as a function of the test compound concentration.

Complement factor B [1] = biological target: T1, Complement factor B (Homo sapiens, UniProt P00751); assay: Human complement factor B ELISA assay (CVF-Bb, complement C3 protein); assay type: biochemical; design: followed by the addition of 0.2 μL of CVF-Bb (0.1 μmol/mL); conditions: CVF-Bb incubated with compound 1 hour, then complement C3 protein 37° C. 2 hours, OD 450 nm
Experimental: The mixture was incubated at room temperature for 1 hour;
Then, 9 μL of the successfully incubated samples were taken and added to the wells of the 96T plate, followed by the addition of 1 μL complement C3 protein, and the reaction was carried out at a constant temperature of 37° C. for 2 hours;
The 9 μL of the aforementioned sample-free liquid was mixed with 1 μL of complement C3 protein as the negative control; • 10 μL of the successfully incubated sample was taken, and the inhibitory concentration was determined by ELISA. The OD value at 450 nm was measured, and a curve was plotted. The obtained data were analyzed using GraphPad Prism 7.0 software, and a Log concentration-inhibition rate curve was generated using a nonlinear regression model to calculate the IC50 value.
Target sequence in this assay (P00751 260-764 limits assumed): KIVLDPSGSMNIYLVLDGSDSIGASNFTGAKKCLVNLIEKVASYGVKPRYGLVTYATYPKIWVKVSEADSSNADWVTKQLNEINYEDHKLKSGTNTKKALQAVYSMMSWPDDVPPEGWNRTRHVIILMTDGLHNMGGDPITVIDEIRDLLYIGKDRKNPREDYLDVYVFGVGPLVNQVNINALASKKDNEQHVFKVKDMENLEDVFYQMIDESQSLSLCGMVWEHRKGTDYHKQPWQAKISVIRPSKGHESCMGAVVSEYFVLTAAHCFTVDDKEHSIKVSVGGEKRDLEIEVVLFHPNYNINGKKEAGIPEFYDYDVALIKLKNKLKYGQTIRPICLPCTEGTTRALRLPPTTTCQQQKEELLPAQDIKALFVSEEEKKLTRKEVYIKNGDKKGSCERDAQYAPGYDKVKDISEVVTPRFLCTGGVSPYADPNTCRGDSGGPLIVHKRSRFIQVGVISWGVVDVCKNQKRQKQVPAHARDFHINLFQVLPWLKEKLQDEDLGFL
Target sequence in this assay (Q91132 23-649 partner limits assumed): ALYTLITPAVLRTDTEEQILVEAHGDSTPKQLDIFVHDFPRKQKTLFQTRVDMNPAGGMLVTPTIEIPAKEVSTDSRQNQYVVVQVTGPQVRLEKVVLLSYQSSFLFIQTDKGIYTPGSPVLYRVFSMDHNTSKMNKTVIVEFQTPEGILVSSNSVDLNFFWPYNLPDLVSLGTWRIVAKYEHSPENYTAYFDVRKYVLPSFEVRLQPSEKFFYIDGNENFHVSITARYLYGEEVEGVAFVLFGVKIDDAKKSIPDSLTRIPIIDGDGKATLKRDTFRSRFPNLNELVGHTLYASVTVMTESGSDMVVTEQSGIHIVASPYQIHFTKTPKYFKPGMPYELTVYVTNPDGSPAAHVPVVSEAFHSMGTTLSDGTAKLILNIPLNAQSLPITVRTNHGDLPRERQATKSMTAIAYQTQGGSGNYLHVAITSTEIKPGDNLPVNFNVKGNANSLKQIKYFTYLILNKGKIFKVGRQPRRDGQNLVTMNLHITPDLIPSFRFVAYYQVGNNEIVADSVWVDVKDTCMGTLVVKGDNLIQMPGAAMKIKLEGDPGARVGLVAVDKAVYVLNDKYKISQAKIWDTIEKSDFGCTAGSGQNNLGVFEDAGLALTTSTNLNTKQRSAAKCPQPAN
Target sequence in this assay (Q91132 733-984 partner limits assumed): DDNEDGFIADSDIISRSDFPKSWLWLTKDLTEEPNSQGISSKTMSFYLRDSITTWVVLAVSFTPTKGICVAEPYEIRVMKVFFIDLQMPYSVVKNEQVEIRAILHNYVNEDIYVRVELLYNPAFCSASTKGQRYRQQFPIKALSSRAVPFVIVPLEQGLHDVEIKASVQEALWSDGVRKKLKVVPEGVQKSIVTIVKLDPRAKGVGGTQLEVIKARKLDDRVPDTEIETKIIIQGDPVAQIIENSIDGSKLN
Target sequence in this assay (Q91132 1264-1642 partner limits assumed): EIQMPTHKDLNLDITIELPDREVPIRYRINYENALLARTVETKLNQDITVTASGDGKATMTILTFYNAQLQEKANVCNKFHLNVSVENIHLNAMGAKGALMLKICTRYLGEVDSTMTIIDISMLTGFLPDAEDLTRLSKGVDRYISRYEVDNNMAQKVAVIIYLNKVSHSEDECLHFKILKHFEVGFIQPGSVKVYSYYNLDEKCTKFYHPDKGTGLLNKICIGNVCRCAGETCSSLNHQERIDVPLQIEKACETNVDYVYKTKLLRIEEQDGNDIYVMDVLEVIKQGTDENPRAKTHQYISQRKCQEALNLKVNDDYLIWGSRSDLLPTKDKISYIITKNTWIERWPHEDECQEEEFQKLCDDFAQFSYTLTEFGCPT

Complement factor B [2] = biological target: T1, Complement factor B; assay: Optical surface plasmon resonance (SPR) binding affinity assay
Target sequence in this assay (P00751 26-764): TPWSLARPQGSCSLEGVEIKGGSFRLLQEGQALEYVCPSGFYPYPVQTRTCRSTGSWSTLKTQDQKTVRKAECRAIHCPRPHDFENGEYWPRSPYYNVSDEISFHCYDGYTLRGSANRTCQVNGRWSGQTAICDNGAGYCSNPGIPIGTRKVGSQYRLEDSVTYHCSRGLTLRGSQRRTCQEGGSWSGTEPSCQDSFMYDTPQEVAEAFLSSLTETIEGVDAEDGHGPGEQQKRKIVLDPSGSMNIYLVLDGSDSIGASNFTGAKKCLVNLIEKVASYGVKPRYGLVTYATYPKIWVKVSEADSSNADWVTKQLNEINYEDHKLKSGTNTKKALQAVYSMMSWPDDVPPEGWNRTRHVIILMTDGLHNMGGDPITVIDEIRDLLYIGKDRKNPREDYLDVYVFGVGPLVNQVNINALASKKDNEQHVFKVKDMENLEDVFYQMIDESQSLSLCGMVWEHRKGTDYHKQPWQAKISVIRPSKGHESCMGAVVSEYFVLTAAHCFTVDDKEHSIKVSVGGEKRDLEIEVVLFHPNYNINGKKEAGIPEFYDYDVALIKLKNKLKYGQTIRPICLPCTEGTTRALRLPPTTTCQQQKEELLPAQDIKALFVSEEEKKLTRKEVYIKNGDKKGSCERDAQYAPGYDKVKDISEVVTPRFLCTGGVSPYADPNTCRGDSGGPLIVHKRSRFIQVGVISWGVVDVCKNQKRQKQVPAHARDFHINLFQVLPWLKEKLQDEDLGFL
Method: The SPR experiment was conducted at 25° C. using PBS buffer supplemented with 0.05% (v/v) P20 and 5% DMSO as the running buffer. The Biacore 8K instrument from GE Healthcare was employed for analysis. The CM3 chip (GE Healthcare) was activated with 400 mM EDC and 100 mM NHS at a flow rate of 30 μL/min for 420 s.

For `COc1cc(C)c2[nH]ccc2c1C(=O)N1CCC(O)(C2CCC2)C[C@H]1c1ccc(C(=O)O)cc1` (mixture of isomers) [Final product of Example 154, 4-((2S)-4-Cyclobutyl-4-hydroxy-1-(5-methoxy-7-methyl-1H-indole-4-carbonyl)piperidin-2-yl)benzoic acid], the IC50 (PNH-like erythrocytes) was 4000 to 4500 nM, the IC50 (Complement factor B [1]) was 400 to 450 nM and the Kd (Complement factor B [2]) was 10 to 30 nM.
With `CCO[C@H]1CCN(C(=O)c2c(OC)cc(C)c3[nH]ccc23)[C@H](c2ccc(C(=O)O)cc2)C1` [Compound 1 of Example 55, 4-((2S,4S)-4-Ethoxy-1-(5-methoxy-7-methyl-1H-indole-4-carbonyl)piperidin-2-yl)benzoic acid] the IC50 (PNH-like erythrocytes) was 1000 to 1500 nM, the IC50 (Complement factor B [1]) was 150 to 300 nM and the Kd (Complement factor B [2]) was 10 to 30 nM.
Compound `COc1cc(C)c2[nH]ccc2c1C(=O)N1CC[C@H](OCC2CC2)C[C@H]1c1ccc(C(=O)O)cc1` [Compound 9 of Example 71, 4-((2S,4S)-4-(Cyclopropylmethoxy)-1-(5-methoxy-7-methyl-1H-indole-4-carbonyl)piperidin-2-yl)benzoic acid] has an IC50 (PNH-like erythrocytes) of 6000 to 6500 nM and a Kd (Complement factor B [2]) of 10 to 30 nM.
For `CCO[C@H]1CCN(S(=O)(=O)c2c(OC)cc(C)c3[nH]ccc23)[C@H](c2ccc(C(=O)O)cc2)C1` [Compound 51 of Example 144, 4-((2S,4S)-4-Ethoxy-1-((5-methoxy-7-methyl-1H-indol-4-yl)sulfonyl)piperidin-2-yl)benzoic acid], the IC50 (PNH-like erythrocytes) was 2000 to 2500 nM, the IC50 (Complement factor B [1]) was 300 to 500 nM and the Kd (Complement factor B [2]) was 10 to 30 nM.
With `COc1cc(C)c2[nH]ccc2c1C(=O)N1CCC(O)(C2CC2)C[C@H]1c1ccc(C(=O)O)cc1` (stereo partly drawn) [Final product of Example 155, 4-((2S)-4-Cyclopropyl-4-hydroxy-1-(5-methoxy-7-methyl-1H-indole-4-carbonyl)piperidin-2-yl)benzoic Acid] the IC50 (PNH-like erythrocytes) was 1000 to 1500 nM, the IC50 (Complement factor B [1]) was 150 to 300 nM and the Kd (Complement factor B [2]) was 10 to 30 nM.
`COc1cc(C)c2[nH]ccc2c1C(=O)N1CC[C@H](OC)C[C@H]1c1ccc(C(=O)O)cc1` [Final product of Example 156, 4-((2S,4S)-4-Methoxy-1-(5-methoxy-7-methyl-1H-indole-4-carbonyl)piperidin-2-yl)benzoic acid] showed an IC50 (PNH-like erythrocytes) of 1000 to 1500 nM, an IC50 (Complement factor B [1]) of 150 to 300 nM and a Kd (Complement factor B [2]) of 10 to 30 nM.
With `COc1cc(C)c2[nH]ccc2c1C(=O)N1CC[C@H](OC2CCC2)C[C@H]1c1ccc(C(=O)O)cc1` [Final product of Example 157, 4-((2S,4S)-4-Cyclobutoxy-1-(5-methoxy-7-methyl-1H-indole-4-carbonyl)piperidin-2-yl)benzoic acid] the IC50 (PNH-like erythrocytes) was 4000 to 4500 nM, the IC50 (Complement factor B [1]) was 400 to 450 nM and the Kd (Complement factor B [2]) was 10 to 30 nM.
Compound `CCO[C@H]1CCN(Cc2c(OC)cc(C)c3[nH]ccc23)[C@H](c2ccc(C(=O)O)cc2)C1` [LNP023, reference compound] has an IC50 (PNH-like erythrocytes) of 224 nM.
